{
  "source": "patent US10328092B2",
  "about": "“Methods and compositions for treatment of drug addiction” (The Royal Institution for the Advancement of Learning / …, priority 2015, dated 2019)",
  "format_in_all_cases": "in vivo, mouse",
  "key": {"[1]": {"test_system": "TNFα mRNA", "description": "For tissue, total RNA from the ventral striatum was extracted and isolated by RNAqueous-4PCR total RNA isolation kit (Ambion, AM1914), according to manufacturer's instructions. For microglia and astrocyte cultures, total RNA was isolated by RNeasy kit (Qiagen, 74136). For all sample types, 0.5 μg of total RNA was used for cDNA synthesis with Quantitect Reverse Transcription Kit (Qiagen, 205313), and quantitative RT-PCR was performed with Fast SYBR-Green Master Mix (Applied Biosystems) detected by StepOne Plus RealTime PCR system (Applied Biosystems). The sequences of qPCR primers used for mRNA quantification in this study were obtained from Integrated DNA Technologies, and are as follows: mouse TNFα forward, […] (SEQ ID NO: 1) [200 nM]; mouse TNFα reverse, […] (SEQ ID NO: 2) [200 nM]; mouse GAPDH forward, […] (SEQ ID NO: 3) [300 nM]; mouse GAPDH reverse, […] (SEQ ID NO: 4) [300 nM]; rat TNFα forward, […] (SEQ ID NO: 1) [600 nM]; rat TNFα reverse, […] […] After 40 cycles, the Ct values were determined. To normalize the samples, ΔCt between TNFα and GADPH or cyclophilin Ct values was calculated. The x-fold difference in expression between the different treatments was then determined by subtraction of the ΔCt values and termed ΔΔCt. Finally, the total change was calculated as 2-ΔΔct and the relative amount compared with control samples was deducted."}, "[2]": {"test_system": "microglia in the nucleus accumbens", "experiment": "Microglia activation in nucleus accumbens (Iba1 immunostaining, morphology)", "description": "Resting microglia have a ramified morphology but continuously survey the healthy brain and respond to a variety of activation signals by undergoing progressive morphological and functional changes (Kettenmann et al., 2011). Cocaine administration could activate microglia in the NAc, which could lead to the observed elevation of TNFα. Using the microglia marker Iba1, microglia was labeled in adult mice, 24 hours after a single cocaine injection, 24 hrs after 5 days of daily cocaine injections, or after 10 days of drug abstinence. Although no change was identified in the number of microglia in the NAc at any time point (FIG. 10E), Iba1 intensity was increased in microglia by 5 days of cocaine, and after a period of abstinence (FIG. 6C-D), indicating activation. […] In contrast to the change in microglia, no activation of astrocytes was observed, as judged by GFAP expression. […] This is consistent with the observation that TNFα is derived from microglia and not astrocytes during sensitization.\nMice (8-10 weeks) were perfused and their brains submerged overnight in 4% PFA, cryoprotected with 30% sucrose, and cut in 30 μm thick coronal slices using a cryostat. […] Images of the ventral striatum (nucleus accumbens core and shell) were acquired with a 40× or 60× objective and stacks of 25-30 optical sections (1 μm per section) of depth were Z-projected into a single window and analysed using ImageJ software (NIH).\nThe number of Iba1+ microglia were manually counted from 212×212 μm (60× objectives) or 317×317 μm (40× objectives) images. TNFα intensity was measured using the mean grey value of the entire image while Iba1 intensity measurements were obtained using a thresholded area to highlight only the microglia. Cell body area (μm^2) was measured based on Iba1 staining and using the freehand selection tool. […] The following parameters were analyzed for 40 microglia per group: total process length (sum of length of all processes), total process volume, process diameter and number of branch points and terminals. […]"}, "[3]": {"test_system": "mice", "experiment": "Basal locomotion", "description": "To determine whether the low TNFα response induced by MPLA can affect the behavioural response to cocaine, it was first assessed if MPLA can alter the basal locomotion of mice. Mice were injected with 10 ug of MPLA, and tested 24 hrs later. No difference in basal locomotion was observed (n=4), compared with saline injected control mice (FIG. 2).\nLocomotion was monitored in 30×30 cm plexiglass boxes by the EthoVision video-tracking system (Noldus) and performed near the end of the light phase of the light-dark cycle under dim red light. After habituating animals to handling, mice received IP injections of saline or cocaine and their activity was recorded for 15 min. […] Following 10 days without injections (withdrawal), mice receive a challenge dose of cocaine (15 mg/kg) and locomotor activity again assessed (day 17). Total distance traveled and stereotypy were evaluated from video by EthoVision. For stereotypy, the frequency of which the mouse stops moving (#pauses/min) was measured using a threshold start velocity of 2.00/second and a threshold stop velocity of 0 cm/s. The number of turns per minute (# turns/min) was measured by calculating the frequency for which the path of the mouse turns over a minimum distance of 3.00 cm. Velocity was assessed as the mean distance traveled (cm) over time (s)."}, "[4]": {"test_system": "mice", "experiment": "Stereotypic responses to cocaine (pausing, turning, velocity)", "conditions": "MPLA 10 μg or 50 μg, response to cocaine", "description": "Locomotion was monitored in 30×30 cm plexiglass boxes by the EthoVision video-tracking system (Noldus) and performed near the end of the light phase of the light-dark cycle under dim red light. After habituating animals to handling, mice received IP injections of saline or cocaine and their activity was recorded for 15 min. Mice were tested during habituation to injection and the activity boxes (saline; days 1-2) and 5 repeated cocaine injections (15 mg/kg; days 3-7). Following 10 days without injections (withdrawal), mice receive a challenge dose of cocaine (15 mg/kg) and locomotor activity again assessed (day 17). Total distance traveled and stereotypy were evaluated from video by EthoVision. For stereotypy, the frequency of which the mouse stops moving (#pauses/min) was measured using a threshold start velocity of 2.00/second and a threshold stop velocity of 0 cm/s. The number of turns per minute (# turns/min) was measured by calculating the frequency for which the path of the mouse turns over a minimum distance of 3.00 cm. Velocity was assessed as the mean distance traveled (cm) over time (s)."}},
  "data": [
    {"compound": "COC(=O)[C@H]1[C@@H](OC(=O)c2ccccc2)C[C@@H]2CC[C@H]1N2C", "note": "[cocaine]", "values": [
      {"measurement": "increase of TNFα mRNA in microglia cells", "setting": "[1]; 5 daily injections of cocaine, striatum CD11b+ fraction", "result": "~2.5", "unit": "fold"},
      {"measurement": "decrease in TNFα mRNA in non-microglial cells", "setting": "[1]; five daily cocaine treatments, other striatal cell types", "result": "3.26±0.21", "unit": "fold"},
      {"measurement": "microglia cell body area", "setting": "[2]; 5 d cocaine", "result": "37.2±0.9", "unit": "μm^2"},
      {"measurement": "decrease of total length of microglia processes", "setting": "[2]; after 5 days cocaine", "result": 20, "unit": "%"}
    ]},
    {"compound": "monophosphoryl lipid A [MPLA]", "values": [
      {"measurement": "basal locomotion, distance", "setting": "[3]; 24 hours after IP injection of 10 μg MPLA", "result": "5415±378", "unit": "cm"},
      {"measurement": "basal locomotion vs saline injected mice", "setting": "[3]; 24 hours after i.p. injection of 10 μg MPLA", "result": "No significant differences"},
      {"measurement": "mean velocity", "setting": "[4]", "result": "significant decreases"},
      {"measurement": "pausing", "setting": "[4]", "result": "slight increase"},
      {"measurement": "turning behaviour", "setting": "[4]", "result": "significant decreases"},
      {"measurement": "Iba1 intensity in nucleus accumbens", "setting": "[2]; 24 hours after a single MPLA injection 10 μg, after 10 day withdrawal from cocaine", "result": "significantly increased"}
    ]}
  ]
}
